pIC50, pKi: −log10 of the molar value.
Assays:
Neprilysin [1] = molecular target: T1, Neprilysin (Homo sapiens, UniProt P08473); assay: Inhibition of NEP (unknown origin)
Neprilysin [2] = molecular target: T1, Neprilysin; assay: Binding affinity to NEP (unknown origin) assessed as inhibition constant
[3] = molecular target: T2, Type-2 angiotensin II receptor (Homo sapiens, UniProt P50052); assay: Inhibition of Angiotensin-2 receptor (unknown origin)
T2 sequence (P50052 whole entry): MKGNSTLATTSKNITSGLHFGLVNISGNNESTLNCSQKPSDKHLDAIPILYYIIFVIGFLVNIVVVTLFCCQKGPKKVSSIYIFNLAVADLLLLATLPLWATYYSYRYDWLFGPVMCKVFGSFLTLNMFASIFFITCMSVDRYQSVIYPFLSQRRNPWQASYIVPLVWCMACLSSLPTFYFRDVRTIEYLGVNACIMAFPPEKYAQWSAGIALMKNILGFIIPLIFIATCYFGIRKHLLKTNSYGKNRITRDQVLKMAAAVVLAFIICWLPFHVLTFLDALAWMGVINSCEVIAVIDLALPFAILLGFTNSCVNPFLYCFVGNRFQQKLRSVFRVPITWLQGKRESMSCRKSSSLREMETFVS

T1 sequence (P08473 whole entry): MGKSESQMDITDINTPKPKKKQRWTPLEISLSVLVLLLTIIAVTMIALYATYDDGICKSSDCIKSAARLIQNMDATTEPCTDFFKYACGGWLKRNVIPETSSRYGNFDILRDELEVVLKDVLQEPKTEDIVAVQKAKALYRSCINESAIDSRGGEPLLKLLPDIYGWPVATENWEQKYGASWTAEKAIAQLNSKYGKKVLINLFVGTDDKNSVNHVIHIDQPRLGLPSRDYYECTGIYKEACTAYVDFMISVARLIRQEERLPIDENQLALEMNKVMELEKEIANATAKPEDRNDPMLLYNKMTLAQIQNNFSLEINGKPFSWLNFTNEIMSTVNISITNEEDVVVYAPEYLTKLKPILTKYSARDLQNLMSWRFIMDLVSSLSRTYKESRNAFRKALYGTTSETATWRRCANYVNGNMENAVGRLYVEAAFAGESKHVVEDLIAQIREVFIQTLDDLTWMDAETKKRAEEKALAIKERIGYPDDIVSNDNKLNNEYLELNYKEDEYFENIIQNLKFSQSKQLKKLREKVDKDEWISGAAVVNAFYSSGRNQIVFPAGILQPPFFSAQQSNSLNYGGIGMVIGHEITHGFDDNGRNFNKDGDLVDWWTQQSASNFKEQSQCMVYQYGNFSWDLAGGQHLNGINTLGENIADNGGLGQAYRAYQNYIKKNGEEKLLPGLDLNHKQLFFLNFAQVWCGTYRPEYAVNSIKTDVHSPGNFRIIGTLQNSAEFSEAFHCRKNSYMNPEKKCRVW

| Compound | pIC50 (Neprilysin [1]) | pKi (Neprilysin [2]) | pIC50 [3] |
| --- | --- | --- | --- |
| SC[C@@H](Cc1ccccc1)c1nc2cnccc2[nH]1 | 7.40 | – | – |
| COC(c1ccccc1)c1cnc(C(CS)Cc2ccccc2)[nH]1 (stereo not drawn) | 5.77 | – | – |
| SC[C@@H](Cc1ccc(-c2ccccc2)cc1)c1nc2cnccc2[nH]1 | 7.52 | – | – |
| N[C@@H](Cc1ccc(Oc2cc(I)c(O)c(I)c2)c(I)c1)C(=O)O [REVERSE TRIIODOTHYRONINE] | – | – | 4.53 |

Second part, led by results:

| pIC50 (Neprilysin [1]) | pKi (Neprilysin [2]) | Compound | pIC50 [3] |
| --- | --- | --- | --- |
| – | 8.21 | COCCOC[C@H](CC1(C(=O)N[C@H]2CC[C@@H](C(=O)O)CC2)CCCC1)C(=O)O [CANDOXATRILAT] | – |
| – | 9.19 | COc1cc(/C=C2\CCC/C(=C\c3ccc(O)c(OC)c3)C2=O)ccc1O [CYCLOVALONE] | – |
| 8.30 | 9.35 | O=C(N[C@H]1CCS[C@H]2CCC[C@@H](C(=O)O)N2C1=O)[C@@H](S)Cc1ccccc1 [OMAPATRILAT] | – |

Source: ChEMBL document CHEMBL6078628, “A perspective on the development of small molecular neprilysin inhibitors (NEPi) with emphasis on cardiorenal disease” (Eur J Med Chem, 2024)
